Test results published in PubChem BioAssay (NCI).
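Grown in 96-well plates, cells were treated for 48 hours with each compound at five concentrations. Insufficient inhibition: endpoint recorded as highest concentration tested. GI50: concentration for 50% inhibition of growth. TGI is the concentration that stops growth completely.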

Columns and labels:
Assay in all cases: growth of human tumour cells (NCI), 48 h
KM12 colon = tested on: KM12 colon
SW-620 colon = tested on: SW-620 colon
A498 renal = tested on: A498 renal
SK-OV-3 ovarian = tested on: SK-OV-3 ovarian
TK-10 renal = tested on: TK-10 renal
HOP-92 NSCLC = tested on: HOP-92 NSCLC
A549 NSCLC = tested on: A549 NSCLC
NCI-H23 lung = tested on: NCI-H23 lung
HCC-2998 colon = tested on: HCC-2998 colon
786-0 renal = tested on: 786-0 renal
SN12C renal = tested on: SN12C renal

Structure (SMILES) | TGI (KM12 colon) [µM] | TGI (SW-620 colon) [µM] | TGI (A498 renal) [µM] | TGI (SK-OV-3 ovarian) [µM] | TGI (TK-10 renal) [µM] | TGI (HOP-92 NSCLC) [µM] | TGI (A549 NSCLC) [µM] | TGI (NCI-H23 lung) [µM] | TGI (HCC-2998 colon) [µM] | TGI (786-0 renal) [µM] | TGI (SN12C renal) [µM] | GI50 (SW-620 colon) [µM] | GI50 (A498 renal) [µM] | GI50 (SK-OV-3 ovarian) [µM] | GI50 (TK-10 renal) [µM] | GI50 (HOP-92 NSCLC) [µM] | GI50 (HCC-2998 colon) [µM] | GI50 (NCI-H23 lung) [µM] | GI50 (KM12 colon) [µM] | GI50 (A549 NSCLC) [µM]
CN(CCO)Cc1ncccc1O | > 100 | > 100 | > 100 | > 100 | > 100 | > 100 | > 100 | > 100 | – | – | – | – | – | – | – | – | – | – | – | –
c1cc(-c2ccc(-c3nc4ccc(C5=NCCN5)cc4s3)s2)ccc1C1=NCCN1 | 1.67 | > 100 | – | – | 2.42 | 1.08 | – | > 100 | 0.162 | 0.272 | – | – | – | – | – | – | – | – | – | –
COC(=O)c1c(C)[nH]c2c1C(=O)C(=O)c1nc(C)c(C)nc1-2 | 37.1 | 41.7 | 40 | 18.5 | 9.68 | 24.8 | > 100 | 36.9 | 24 | 25.9 | 12.8 | – | – | – | – | – | – | – | – | –
CN1CC(c2ccccc2)C(O)(C2(c3ccccc3)CN(C)CC(c3ccccc3)C2=O)C(c2ccccc2)C1 (centres undefined) | > 100 | > 100 | > 100 | – | > 100 | > 100 | > 100 | > 100 | – | > 100 | > 100 | – | – | – | – | – | – | – | – | –
Clc1ccc(C2CC(c3cccc(Nc4ccncc4)c3)=NN2c2ccc(Cl)cc2)cc1 (centres undefined) | – | 3.6 | 2.94 | 3.41 | 3.5 | 2.79 | – | 3.49 | 3.27 | – | – | 1.8 | 1.56 | 1.77 | 1.87 | 1.38 | 1.73 | 1.83 | – | –
CCc1c2cc(OC)c(OC)cc2cc2c3cc(OC)c(OC)cc3cc[n+]12 (tested in a mixture with another compound) | > 61.5 | 75.8 | > 71.8 | > 97.2 | > 100 | > 80 | > 96.6 | 60.5 | 52 | > 73 | > 79.9 | – | – | – | – | – | – | – | – | –
O=C(O)CCO/N=C1/C(c2c(O)[nH]c3ccccc23)=Nc2ccccc21 | 38.9 | > 100 | 74.2 | 21.1 | > 100 | 96.9 | > 100 | 66.5 | 35.7 | 94.8 | > 100 | – | – | – | – | – | – | – | – | –
CC[C@@]1(OC(=O)CN(C)C)C(=O)OCc2c1cc1n(c2=O)Cc2cc3c(N)cccc3nc2-1 | 0.342 | 2.57 | 0.0987 | 0.884 | > 100 | 0.785 | 1.37 | 0.684 | 0.875 | – | – | 0.0181 | 0.0208 | 0.0402 | 1.68 | 0.0239 | 0.131 | 0.0277 | 0.102 | 0.0575
OC(c1ccc(Cl)cc1)(c1ccc(Cl)cc1)c1cncnc1 | 31.9 | 55.4 | 47.6 | – | 57.5 | 31.2 | – | 61.6 | – | – | 80.3 | – | – | – | – | – | – | – | – | –
CCCCN(CCCC)CCC(O)c1cc(-c2ccc(C(F)(F)F)cc2)nc(-c2ccc(C(F)(F)F)cc2)c1 (centres undefined) | – | > 100 | > 100 | – | > 100 | > 100 | – | > 100 | > 100 | > 100 | > 100 | – | – | – | – | – | – | – | – | –
COc1ccc(C(=O)O[C@H]2CC[C@@]3(C)[C@@H]4CC[C@H]5[C@]6(O)C[C@H](O)[C@@]7(O)[C@@H](CN8C[C@@H](C)CC[C@H]8[C@@]7(C)O)[C@]6(O)C[C@@]53OC24O)cc1OC | > 100 | > 100 | > 100 | > 100 | > 100 | > 100 | > 100 | > 100 | > 100 | > 100 | > 100 | – | – | – | – | – | – | – | – | –
CN(C)CCCNc1ccc2nnn3c4ccc(OC(=O)c5ccccc5)cc4c(=O)c1c23 | 23.3 | 21.2 | 25.4 | 42.9 | 24.3 | 39.2 | 23.7 | 32.2 | 26.1 | 17.5 | 25.4 | – | – | – | – | – | – | – | – | –
O=S(=O)(O)c1cc(S(=O)(=O)O)c2cc(N=Nc3c(O)ccc4ccccc34)ccc2c1 | > 100 | > 100 | – | > 100 | > 100 | > 100 | > 100 | > 100 | – | > 100 | > 100 | – | – | – | – | – | – | – | – | –
CCOC(=O)Nc1sc2c(c1C#N)CC(C)CC2 (centres undefined) | 36 | > 100 | – | > 100 | 98 | > 100 | 40 | > 100 | 11.2 | 40.6 | 99 | – | – | – | – | – | – | – | – | –
O=C1CCCC/C1=C1/SC(=Nc2ccccc2)C(=Nc2ccccc2)N1c1ccccc1 | > 100 | – | > 100 | > 100 | – | > 100 | – | > 100 | > 100 | – | > 100 | – | – | – | – | – | – | – | – | –
O=C(Nn1c(-c2cccs2)nc2ccc(I)cc2c1=O)c1ccccc1 | 81.2 | > 100 | – | – | 63.1 | 51.7 | 45.1 | 67.4 | 58.6 | > 100 | > 100 | – | – | – | – | – | – | – | – | –

Structure (SMILES) | TGI (KM12 colon) [µM] | TGI (SW-620 colon) [µM] | TGI (A498 renal) [µM] | TGI (SK-OV-3 ovarian) [µM] | TGI (TK-10 renal) [µM] | TGI (HOP-92 NSCLC) [µM] | TGI (A549 NSCLC) [µM] | TGI (NCI-H23 lung) [µM] | TGI (HCC-2998 colon) [µM] | TGI (786-0 renal) [µM] | TGI (SN12C renal) [µM] | GI50 (SW-620 colon) [µM] | GI50 (A498 renal) [µM] | GI50 (SK-OV-3 ovarian) [µM] | GI50 (TK-10 renal) [µM] | GI50 (HOP-92 NSCLC) [µM] | GI50 (HCC-2998 colon) [µM] | GI50 (NCI-H23 lung) [µM] | GI50 (KM12 colon) [µM] | GI50 (A549 NSCLC) [µM]
CC1C2CCC3C(O)C2(CC(O)C2(O)C1CC(O)C2(C)C)CC3(C)O (centres undefined) | > 100 | > 100 | > 100 | > 100 | > 100 | > 100 | > 100 | > 100 | > 100 | > 100 | > 100 | – | – | – | – | – | – | – | – | –
COc1ccc(/C=C2\C[C@H]3[C@@H]4CC=C5C[C@@H](OC(C)=O)CC[C@]5(C)[C@H]4CC[C@]3(C)\C2=N\O)cc1OC | > 100 | > 100 | > 100 | > 100 | – | > 100 | > 100 | > 100 | > 100 | > 100 | > 100 | – | – | – | – | – | – | – | – | –
CCC1C(C#N)=C(O)NC(O)=C1C#N | > 100 | > 100 | > 100 | > 100 | > 100 | > 100 | > 100 | > 100 | > 100 | – | > 100 | – | – | – | – | – | – | – | – | –
O=C1C[C@H](COCc2ccccc2)NC(=O)C[C@H](COCc2ccccc2)NC(=O)C[C@H](COCc2ccccc2)N1 | > 100 | > 100 | 42 | 57.3 | 41.1 | 35.4 | > 100 | > 100 | > 100 | > 100 | > 100 | – | – | – | – | – | – | – | – | –
COC1CC(OC2CCC3(C)C(=CCC4C3C(OC(C)=O)C(OC(=O)CC(C)C)C3(C)C(C(C)=O)CCC43O)C2)OC(C)C1OC1CC(OC)C(OC2CC(OC)C(OC3OC(C)C(O)C(OC)C3O)C(C)O2)C(C)O1 (centres undefined) | > 100 | 94.7 | > 100 | > 100 | > 100 | 57.6 | > 100 | > 100 | 70.3 | 59.9 | > 100 | – | – | – | – | – | – | – | – | –
CC[C@H](C)C1=C(OC(C)=O)[N@+]2([O-])Oc3ccc(-c4c(O)c(O)c(-c5ccc(OC(C)=O)cc5)c(OC(C)=O)c4OC(C)=O)cc3O[C@]2([C@@H](C)CC)C(=O)N1O | > 50 | 34.5 | > 50 | > 50 | > 50 | 23 | > 50 | > 50 | – | 43.2 | > 50 | – | – | – | – | – | – | – | – | –
Nc1c(OCC(=O)O)ccc2cc(S(=O)(=O)O)ccc12 | > 100 | > 100 | > 100 | > 100 | > 100 | – | > 100 | > 100 | > 100 | > 100 | > 100 | – | – | – | – | – | – | – | – | –
O=C(O)C(O)(c1ccc(-c2ccccc2)cc1)c1ccc(-c2ccccc2)cc1 | 40.9 | > 100 | 43.5 | – | > 100 | 41.4 | > 100 | 36.2 | – | 80.4 | 60.7 | – | – | – | – | – | – | – | – | –
CO/N=C(/C)c1cccc(Nc2nc3ccc(Cl)cc3c3[nH]c4ccccc4c23)c1 | 14.6 | 21.8 | 14.2 | 49.6 | – | 21 | 30.2 | 28.5 | – | 20.5 | 25.9 | – | – | – | – | – | – | – | – | –
C[C@]12Cc3cnc(-c4ccccc4)nc3C[C@@H]1CC[C@@H]1[C@@H]2CC[C@@]2(C)[C@H]1CC[C@]2(C)O | > 67.8 | > 100 | 43.2 | 50 | 39.1 | 54.4 | 57.6 | 47.3 | 37.9 | 27.5 | 57.3 | – | – | – | – | – | – | – | – | –
O=C(O)C1OC1C(=O)O (centres undefined) | > 100 | > 100 | > 100 | > 100 | > 100 | > 100 | > 100 | > 100 | > 100 | > 100 | > 100 | – | – | – | – | – | – | – | – | –
CC(C)=Cc1cc(C)c2c3c(c(O)c(O)c(C)c13)C(C)=CC2=O | 45.8 | > 100 | 47.5 | 89 | – | 38.6 | 56 | 64.5 | – | 64.8 | > 100 | – | – | – | – | – | – | – | – | –
O=NN1C(c2ccccc2)C2CCCC(C2=O)C1c1ccccc1 (centres undefined) | 99.2 | > 100 | > 94.1 | 73.6 | – | 55.6 | > 100 | 48.3 | 34.4 | – | 69.9 | – | – | – | – | – | – | – | – | –
Cc1cn(C2C=CC(COP(=O)(OCc3ccc([N+](=O)[O-])o3)N(C)CCCCCl)O2)c(=O)[nH]c1=O (centres undefined) | 24.1 | 27.1 | – | 24 | 34.3 | 10.9 | 22.8 | 10.7 | – | 23.1 | 23.2 | – | – | – | – | – | – | – | – | –
NC1C=NNC1=O (centres undefined) | > 100 | > 100 | – | > 100 | > 100 | – | > 100 | > 100 | > 100 | – | > 100 | – | – | – | – | – | – | – | – | –
CCOC(=O)c1nc2ccccc2n(CC)c1=O | > 100 | > 100 | > 100 | > 100 | > 100 | > 100 | > 100 | > 100 | > 100 | – | > 100 | – | – | – | – | – | – | – | – | –
